Experimental data published in patent publication US20230255970A1, “COMPOSITIONS AND METHODS FOR TREATING PROLIFERATIVE DISEASES” (The Broad Institute, Inc., priority 2020, published 2023).
One block for each compound: values may come before it.

How the values were obtained:
p38a (MAPK14) = molecular target: T1, p38a (MAPK14) (Homo sapiens, UniProt Q16539); assay: Single-cell p38a activity reporter assay (RPE1-p38 KTR); type: cell-based; details: 1 μM, confirmed at 10 μM; 48 hours; RPE1 cells
T1 construct: tested for their influence on p38a activity using the RPE1-p38 kinase translocation reporter (KTR) line; endogenous in cells; host or cells: RPE1-p38KTR cells
T1 sequence (Q16539 whole entry): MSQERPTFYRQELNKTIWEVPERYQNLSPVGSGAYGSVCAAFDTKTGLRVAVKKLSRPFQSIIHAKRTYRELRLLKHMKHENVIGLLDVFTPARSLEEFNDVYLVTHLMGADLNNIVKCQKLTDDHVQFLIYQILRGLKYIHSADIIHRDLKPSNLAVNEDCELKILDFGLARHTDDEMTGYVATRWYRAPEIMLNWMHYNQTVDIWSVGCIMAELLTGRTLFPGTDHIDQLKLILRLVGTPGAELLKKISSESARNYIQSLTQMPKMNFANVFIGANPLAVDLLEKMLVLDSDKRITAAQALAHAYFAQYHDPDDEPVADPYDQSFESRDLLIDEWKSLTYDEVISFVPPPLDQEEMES
Description: Cell Painting profiles for two wild-type variants of p38a (MAPK14) were averaged to create a p38a Cell Painting profile. 20 compounds whose Cell Painting profile correlated positively or negatively to that of p38a overexpression were selected in addition to 14 “non-correlated compounds” defined as having an absolute value of correlation of less than 0.2 as negative/neutral controls. The compounds were tested for their influence on p38a activity using the RPE1-p38 kinase translocation reporter (KTR) line that was previously generated. This cell line has been tested and confirmed to be negative for mycoplasma contamination, but not necessarily authenticated. P38 activity is measured by phosphorylation of its substrate, MEF2C, which is preferentially phosphorylated by p38 α, while p380 and p386 contribute less. RPE1-p38KTR cells were cultured in DMEM/F12 medium supplemented with 10% Fetal Bovine Serum at 37C in a humidified atmosphere with 5% CO2. 1000 cells were plated in 96-well plates and treated with 1p M or 10 μM of each compound (n=4 per concentration per compound, no replicates) for 48 hours. Only the middle 60 wells were used to prevent potential confounds from the edge effect. Cells were then fixed in 4% paraformaldehyde for 10 min, followed by permeabilization in cold methanol at −20C for 5 min. Cells were stained with 0.4 μg/mL Alexa Fluor 647 carboxylic acid, succinimidyl ester for 2 hr at RT, followed by 1 μg/mL DAPI for 10 min at RT to facilitate the segmentation of individual cells. p38a activity in single cells was calculated using the ratio of the median intensity of the p38-KTR in a 5-pixel-wide cytoplasmic ring around the nucleus to the median intensity of the p38-KTR in the nucleus. p38a activity measurements were normalized to DMSO conditions within the same plate. The Student's t-test Kolomogorov-Smirnov (KS) test was used to assess the score and significance of the single cell distributions of p38a activity for each compound relative to control. […] When reporting hits from this assay, KS test and t-test p-values were adjusted to control the false discovery rate using the Benjamini-Hochberg method, using the p.adjust method=‘BH” in R.

PPARG = PPARG reporter gene assay (FABP4-NanoLuc, RT112/84 bladder cancer cell line); type: cell-based; details: absence or presence of Rosiglitazone
Description: These NanoLuc gene cloned RT112/84 cells were plated in 384-well plates at ˜10,000 cells/well. Cells were dosed with indicated compounds in the absence or presence of EC50 of PPARG agonist, rosiglitazone, using an HP D300 digital dispenser. The following day nuclei were counted for normalization (IncuCyte S3, Essen Bioscience) and the reporter activity was evaluated using the NanoGlo Luciferase Assay System (Promega). Normalized data is reported as NanoGlo arbitrary light units divided by cell number. PPARG agonist, rosiglitazone, and inhibitor, T0070907, were obtained from Tocris and included as controls.

rat cortical neurons = assay: TMRE staining (mitochondrial membrane potential) in rat cortical neurons; type: cell-based; details: 10 μM
Description: High content mitochondrial motility screen: Mitochondrial motility was measured as described in Shlevkov, E. et al., Cell Rep. […] Briefly, we plated E18 rat cortical neurons in the middle 60 wells of 96 well plates (Greiner)—40,000 cells per well in 150 μl enriched Neurobasal media. Neurons were transfected with mito-DsRed at DIV7 using Lipofectamine2000 (Life Technologies). […] At DIV9, test compounds were added into wells to achieve a final concentration of 10 μM each (4 wells per compound), as well at 10 μM calcimycin for neg. control, and DMSO only for mock treatment. Following a 1-2 hour incubation, plates were imaged on a ArrayScan XTI (Thermo Fisher). Mitochondrial motility data was extrapolated from imaging data using a MATLAB and CellProfiler based computational pipeline. […] The experiment was repeated twice in different weeks. In the second week, TMRE was added to all wells after imaging was completed (20 min, then 2 washes) and imaged to measure mitochondrial membrane potential in order to determine mitochondrial and cell health.

[1] = test system: HEK293, HepG2, A549 cells; details: per PubChem; cited from earlier work
KP230 cells = assay: Proliferation assay, KP230 cells; type: cell-based, mouse; details: 10 μM daily for 72 hours
Description: YAP1 cell culture and treatments: Eisinger lab: Murine KP230 cells, a Yap1-dependent cancer cell line, were derived from a tumor from the KP mouse model (Kras^G12/D; Trp53^f/fl), as described in Eisinger-Mathason, T. S. K. et al., Proc. Natl. Acad. Sci. U.S.A 112 (2015): E3402-11, which is hereby incorporated by reference in its entirety. STS-109 UPS cells were derived from a human UPS tumor and validated by Rebecca Gladdy, MD (Sinai Health System, Toronto, Ontario, Canada). TC32 cells were a gift from Patrick Grohar, MD, PhD (Children's Hospital of Philadelphia). HT-1080, HCT-116, and HEK293T cells were purchased from ATCC. KP230, HT-1080, and HEK-293T cells were grown in DMEM with 10% FBS, 1% L-glutamine, and 1% penicillin/streptomycin (P/S). STS-109 cells were cultured in DMEM with 20% FBS, 1% L-glutamine, and 1% P/S. TC32 cells were grown in RPMI with 10% FBS, 1% L-glutamine, and 1% P/S. HCT-116 cells were cultured in McCoy's 5A medium with 10% FBS and 1% P/S. All cells were confirmed to be negative for mycoplasma contamination and were maintained in an incubator at 37C with 5% CO2. For experimental purposes, cells were cultured for up to 20 passages before being discarded, and were grown to approximately 50% confluence to circumvent the effects of high cell density on Yap1 expression and activity. All cell lines in the Eisinger laboratory were treated with 10 μM of each inhibitor or an equivalent volume of DMSO every 24 hours for 3 days, except for STS-109 cells, which were treated daily for 8 days.
NB4A treatment: Cells were treated with 10 μM of each inhibitor or an equivalent volume of DMSO every 24 hours for 3-8 days, and counted with a hemocytometer with trypan blue exclusion daily (KP230, HT-1080, TC32, HCT-116), or every 2 days (STS-109).

[2] = test system: TRAF2 overexpression in U2OS cells; assay: Cell Painting morphological profile matching to TRAF2 overexpression; type: cell-based, human; details: for Corr. to TRAF2: Pearson correlation of Cell Painting signatures, U2OS cells
Description: (§1) Of these, analysis of the 220 constructs that were most closely representative of the annotated full-length transcripts was prioritized. […] Not all genes are likely to impact cellular morphology given the limitation of the experiment; using a single cell line at a single time point under a single set of conditions and stained with six fluorescent labels.
(§2) This standardization was done plate wise, based on the mean and standard deviation of the controls at profile level for the compound dataset. […] The signatures were then obtained by averaging the replicate profiles feature-wise. Pearson correlation was used on the aligned signatures of a gene and compound to score their connection.

murine periosteal cells = assay: qPCR of Yap1 and Cyr61 in murine periosteal cells; type: cell-based, mouse; details: 5 μM
Description: Murine periosteal cells were isolated from a transgenic mouse model (CMV-Cre; R26R-rtTA^fl; tetO-YAP^S127A) in which YAP1 can be activated in a doxycycline inducible manner (Camargo 2011). This mouse model expresses a mutant form of YAP1 (YAP^S127A) that escapes degradation. Cells were cultured in a-MEM with 15% Fetal Bovine serum (S11550, R&D Systems), 1% GlutaMAX-I (Gibco, 35050-061) and 1% Penicillin/Streptomycin (Gibco, 15140-122).
To induce YAP^S127A, […] doxycycline was added to the cell culture medium for 48 hours. This was used as a positive control to compare YAP1 mRNA expression. Cells were also treated with BRD-K34692511-001-01-9 at 5 μM. mRNA was isolated from cells (n=3/group/time point) at 1, 4 or 48 hours after treatment using Qiagen RNeasy Mini kit (Qiagen, 74106). cDNA was prepared as per the manufacturer's protocol using the High-Capacity Reverse Transcription kit (Thermofisher scientific, 4368814). qPCR analysis was performed using the QuantStudio 6 Pro Real-Time PCR System.

PAX8 = PAX8 (Homo sapiens, UniProt Q06710); details: per PubChem; cited from earlier work
PAX8, sequence (Q06710 whole entry, species assumed): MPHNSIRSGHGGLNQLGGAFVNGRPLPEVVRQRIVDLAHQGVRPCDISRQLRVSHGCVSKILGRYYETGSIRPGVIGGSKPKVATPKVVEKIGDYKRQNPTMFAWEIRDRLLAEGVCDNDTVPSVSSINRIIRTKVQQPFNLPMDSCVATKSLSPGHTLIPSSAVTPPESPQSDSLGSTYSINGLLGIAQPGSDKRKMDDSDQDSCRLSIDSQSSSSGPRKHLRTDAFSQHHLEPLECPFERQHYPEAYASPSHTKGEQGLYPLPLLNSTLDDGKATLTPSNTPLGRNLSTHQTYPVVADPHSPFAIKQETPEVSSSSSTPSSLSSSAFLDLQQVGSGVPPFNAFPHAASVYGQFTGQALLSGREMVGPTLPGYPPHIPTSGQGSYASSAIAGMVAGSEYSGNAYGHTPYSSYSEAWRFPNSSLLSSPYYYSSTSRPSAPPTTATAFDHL

[3] = test system: YAP1 overexpression in U2OS cells; assay: Cell Painting morphological profile matching to YAP1/TAZ overexpression signature; type: cell-based, human; details: for Corr. to YAP1 cluster: Pearson correlation of Cell Painting signatures, U2OS cells
Description: as §1
FIG. 2 provides an example characterization of matching the morphological signature of a gene query to the signature(s) of compounds in a library. Connections which show both positive and negative large correlations are considered as matches.
as §2

[4] = test system: H9 human pluripotent stem cells; assay: qPCR of YAP1, CTGF and CYR61 in H9 hPSCs; type: cell-based; details: 24 hrs
Description: H9 hPSCs (WiCell) were maintained on vitronectin (Thermo Fisher)-coated plates in Essential 8 (E8) medium. The cells were routinely passaged using 0.5 mM EDTA and treated with 5 μM Y-27632 dihydrochloride (Tocris) on the first day. For testing the effects of the small molecules, H9 hPSCs were seeded at 50K cells/cm^2 on vitronectin-coated plates in E8 medium supplemented with 5 μM Y-27632 dihydrochloride (day 0). On day 1, the medium was switched to E8 medium. On day 2, the medium was switched to E8 medium supplemented with the small molecules. Following overnight incubation, the cells were collected for subsequent analysis on day 3.
The RNA was extracted using TRIzol (Life Technologies) and Direct-zol™ RNA MiniPrep kit (Zymo Research) as per manufacturer instructions. The RNA was reverse transcribed using iScript cDNA synthesis kit (Bio-Rad). The qPCR was performed on CFX Connect (Bio-Rad) using iTaq Universal SYBR Green Supermix (Bio-Rad). GAPDH was used as a reference gene for normalization. The relative gene expression levels were determined using the ddCt method.

U2OS cells = assay: Cell count in U2OS Cell Painting images; type: cell-based, human; details: for Avg. Cell Count z-score: U2OS Cell Painting
Description: as §1, §2

SMILES: Nc1nc(Nc2ccccc2)nc2c1ncn2C1OC(CO)C(O)C1O (stereo not shown) [BRD-A64933752, 2-(6-amino-2-anilinopurin-9-yl)-5-(hydroxymethyl)oxolane-3,4-diol]
p38a activity (p38a (MAPK14)): potential inhibitors

SMILES: CC(C)(C)n1nc(-c2cccc3ccccc23)c2c(N)ncnc21 [BRD-K29542628, 1-(tert-Butyl)-3-(naphthalen-1-yl)-1H-pyrazolo[3,4-d]pyrimidin-4-amine]
PPARG reporter activity (PPARG): active in the PPARG reporter assay | TMRE staining (mitochondrial membrane potential) (rat cortical neurons): normal levels of TMRE staining

SMILES: CO[C@@H]1CN(C)C(=O)c2cc(NC(=O)Nc3ccc(C(F)(F)F)cc3)ccc2OC[C@@H](C)NC[C@@H]1C [BRD-K34692511, 1-[(4R,7S,8S)-8-methoxy-4,7,10-trimethyl-11-oxo-2-oxa-5,10-diazabicyclo[10.4.0]hexadeca-1(12),13,15-trien-14-yl]-3-[4-(trifluoromethyl)phenyl]urea]
AC50, inhibition of cell proliferation [1]: had none of these impacts | proliferation (KP230 cells): inhibited KP230 cell proliferation | Cell Painting profile correlation with TRAF2 overexpression [2]: 0.29 | Corr. to TRAF2 [2]: 0.2869 | mRNA levels of Yap1 and Cyr61 (murine periosteal cells; 1 and 4 hours): not at 1 and 4 hours | mRNA levels of Yap1 and Cyr61 (murine periosteal cells; 48 hours): substantially upregulated | PAX8 inhibition (PAX8): had none of these impacts | Cell Painting profile correlation with YAP1 overexpression [3]: −0.45 | Corr. to YAP1 cluster [3]: −0.4398 | mRNA levels of hippo pathway members (YAP1, CTGF, CYR61) [4]: did not dramatically impact | proliferation in the U2OS Cell Painting images (U2OS cells): had none of these impacts | Avg. Cell Count z-score (U2OS cells): 0.478

SMILES: CCCCNc1cc(C(=O)O)cc(S(N)(=O)=O)c1Oc1ccccc1 [BRD-K38197229, 3-(butylamino)-4-phenoxy-5-sulfamoylbenzoic acid]
p38a activity (p38a (MAPK14)): potential inhibitors

SMILES: COC1(C[S@@+]([O-])c2ccccc2)CCN(CCc2c[nH]c3ccc(F)cc23)CC1 [BRD-K52394958, 5-Fluoro-3-[2-[4-methoxy-4-[[(R)-phenylsulfinyl]methyl]piperidin-1-yl]ethyl]-1H-indole]
p38a activity (p38a (MAPK14)): identified via an alternative statistical test

SMILES: CCc1cc(-c2n[nH]c(C)c2-c2ccc3c(c2)OCCO3)c(O)cc1O [BRD-K65503129, 4-[4-(2,3-dihydro-1,4-benzodioxin-6-yl)-5-methyl-1H-pyrazol-3-yl]-6-ethylbenzene-1,3-diol]
PPARG reporter activity (PPARG; listed as B09): active in the PPARG reporter assay | PPARG reporter activity (PPARG; listed as CCT018159): inhibited reporter activity

SMILES: CCCCCCCCCCCCCC(=O)O[C@@H]1[C@@H](C)[C@@]2(O)[C@@H](C=C(CO)C[C@]3(O)C(=O)C(C)=C[C@@H]23)[C@@H]2C(C)(C)[C@]12OC(C)=O [BRD-K68552125, 12-O-Tetradecanoylphorbol-13-acetate]
PPARG reporter activity (PPARG; listed as A06): active in the PPARG reporter assay | PPARG reporter activity (PPARG; listed as Phorbol 12-myristate 13-acetate): inhibited reporter activity | TMRE staining (mitochondrial membrane potential) (rat cortical neurons): normal levels of TMRE staining

SMILES: O=c1[nH]ccc2c(S(=O)(=O)N3CCCNCC3)cccc12 [BRD-K77793136, 5-(1,4-diazepan-1-ylsulfonyl)-2H-isoquinolin-1-one]
Corr. to TRAF2 [2]: −0.4667 | Corr. to YAP1 cluster [3]: 0.4458 | Avg. Cell Count z-score (U2OS cells): −1.055

SMILES: CCc1nc(N)nc(N)c1-c1ccc(Cl)cc1 [BRD-K88429204, 5-(4-chlorophenyl)-6-ethylpyrimidine-2,4-diamine]
Corr. to TRAF2 [2]: −0.3496 | Corr. to YAP1 cluster [3]: 0.4503 | Avg. Cell Count z-score (U2OS cells): −0.2165

SMILES: CC(C)(C)n1nc(-c2ccc(Cl)cc2)c2c(N)ncnc21 [BRD-K95785537, 1-(tert-butyl)-3-(4-chlorophenyl)-1H-pyrazolo[3,4-d]pyrimidin-4-amine]
TMRE staining (mitochondrial membrane potential) (rat cortical neurons): normal levels of TMRE staining

SMILES: C[C@@H]1CN([C@H](C)CO)C(=O)CCCn2cc(nn2)CO[C@@H]1CN(C)S(=O)(=O)c1ccc(Oc2ccccc2)cc1 [BRD-K96698997, N-[[(8R,9S)-6-[(2R)-1-hydroxypropan-2-yl]-8-methyl-5-oxo-10-oxa-1,6,13,14-tetrazabicyclo[10.2.1]pentadeca-12(15),13-dien-9-yl]methyl]-N-methyl-4-phenoxybenzenesulfonamide]
Corr. to TRAF2 [2]: 0.4834 | Corr. to YAP1 cluster [3]: −0.4518 | Avg. Cell Count z-score (U2OS cells): −1.099

SMILES: Cc1ccc(-c2nn(C(C)(C)C)c3ncnc(N)c23)cc1 [PP1, reference compound]
PPARG reporter activity (PPARG): reporter activation

p38a activity (p38a (MAPK14)): suppressed p38a activity
SMILES: Oc1ccc(-c2nc(-c3ccc(F)cc3)c(-c3ccncc3)[nH]2)cc1 [SB202190, 4-(4-(4-fluorophenyl)-5-(pyridin-4-yl)-1H-imidazol-2-yl)phenol, reference compound]
